Data published in US11993599B2, “Therapeutic compounds” (Genentech, Inc., priority 2021, dated 2024).

Key:
[1] = target: BRM (Homo sapiens, UniProt P51531); test: Immunofluorescence assay for BRM degradation in SW1573 cells; format: cell-based; set-up: treated overnight at 4° C. with either BRM primary antibody (Cell signaling Cat #11966) or BRG primary antibody; endogenous in cells; host or cells: SW1573; conditions: 20 hours incubation; for DC50: immunofluorescence mean nuclear signal, read-out: BRM IF Degradation IC50; for BRM IF Degradation Sinf (%): normalized to a known degrader control
In short: (§1)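 Read-out is per-cell mean nuclear BRM or BRG1 immunofluorescence, imaged after 20 h compound exposure of SW1573 cells and normalized to a known degrader control. Concentration-response curves, fit with a floating maximum, yield degradation IC50 and Dmax.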

[2] = target: T1, BRG1 (Homo sapiens, UniProt P51532); test: Immunofluorescence assay for BRG1 degradation in SW1573 cells; format: cell-based; conditions: 20 hours incubation; for DC50: immunofluorescence mean nuclear signal, read-out: BRG1 IF Degradation IC50; for Dmax: SW1573, 20 h, normalized to a known degrader control, read-out: BRG1 IF Degradation Sinf (%)
T1 construct: either BRM primary antibody (Cell signaling Cat #11966) or BRG primary antibody (Abcam, ab 110641); endogenous in cells; host or cells: SW1573
In short: as §1

Chain of BRM (P51531 whole entry): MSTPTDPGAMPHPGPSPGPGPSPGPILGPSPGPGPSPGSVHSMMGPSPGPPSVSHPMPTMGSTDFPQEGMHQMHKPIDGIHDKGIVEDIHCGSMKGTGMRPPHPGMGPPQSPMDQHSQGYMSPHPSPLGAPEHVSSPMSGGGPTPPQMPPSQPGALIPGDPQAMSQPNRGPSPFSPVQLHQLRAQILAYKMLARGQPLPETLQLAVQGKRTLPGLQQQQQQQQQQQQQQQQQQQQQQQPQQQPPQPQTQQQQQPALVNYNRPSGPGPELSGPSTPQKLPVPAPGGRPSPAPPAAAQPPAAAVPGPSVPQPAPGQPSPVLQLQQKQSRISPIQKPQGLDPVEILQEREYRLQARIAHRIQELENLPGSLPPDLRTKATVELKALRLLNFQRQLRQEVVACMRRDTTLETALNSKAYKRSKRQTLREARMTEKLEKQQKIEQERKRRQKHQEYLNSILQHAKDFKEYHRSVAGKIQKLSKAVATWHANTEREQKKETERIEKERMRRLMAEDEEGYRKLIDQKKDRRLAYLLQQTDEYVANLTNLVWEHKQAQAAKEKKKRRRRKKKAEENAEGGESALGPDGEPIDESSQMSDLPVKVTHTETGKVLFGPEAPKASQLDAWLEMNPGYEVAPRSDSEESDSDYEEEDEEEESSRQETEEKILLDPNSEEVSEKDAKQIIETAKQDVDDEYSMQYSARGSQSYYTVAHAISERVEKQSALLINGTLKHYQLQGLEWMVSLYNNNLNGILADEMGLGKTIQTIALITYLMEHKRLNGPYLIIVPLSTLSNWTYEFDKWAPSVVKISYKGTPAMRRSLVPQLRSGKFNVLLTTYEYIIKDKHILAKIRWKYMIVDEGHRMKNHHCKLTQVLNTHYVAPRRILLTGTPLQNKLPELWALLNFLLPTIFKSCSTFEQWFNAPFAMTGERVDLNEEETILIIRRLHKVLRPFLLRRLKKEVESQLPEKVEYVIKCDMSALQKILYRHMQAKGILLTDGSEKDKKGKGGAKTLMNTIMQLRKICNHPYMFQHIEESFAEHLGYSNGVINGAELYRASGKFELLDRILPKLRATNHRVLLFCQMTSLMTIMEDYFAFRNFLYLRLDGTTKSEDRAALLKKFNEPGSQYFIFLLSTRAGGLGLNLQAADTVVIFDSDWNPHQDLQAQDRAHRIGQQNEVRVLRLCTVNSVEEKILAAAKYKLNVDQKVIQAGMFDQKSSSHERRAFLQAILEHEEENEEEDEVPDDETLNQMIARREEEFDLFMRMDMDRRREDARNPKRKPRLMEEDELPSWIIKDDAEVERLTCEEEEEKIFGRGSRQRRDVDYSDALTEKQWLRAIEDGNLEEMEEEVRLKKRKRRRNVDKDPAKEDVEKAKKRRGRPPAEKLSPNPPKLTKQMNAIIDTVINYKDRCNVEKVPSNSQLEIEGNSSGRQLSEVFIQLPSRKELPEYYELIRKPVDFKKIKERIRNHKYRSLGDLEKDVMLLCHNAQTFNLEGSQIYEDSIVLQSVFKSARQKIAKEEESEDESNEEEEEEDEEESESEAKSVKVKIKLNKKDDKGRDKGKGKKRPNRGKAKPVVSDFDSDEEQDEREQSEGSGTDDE
T1 sequence (P51532 whole entry): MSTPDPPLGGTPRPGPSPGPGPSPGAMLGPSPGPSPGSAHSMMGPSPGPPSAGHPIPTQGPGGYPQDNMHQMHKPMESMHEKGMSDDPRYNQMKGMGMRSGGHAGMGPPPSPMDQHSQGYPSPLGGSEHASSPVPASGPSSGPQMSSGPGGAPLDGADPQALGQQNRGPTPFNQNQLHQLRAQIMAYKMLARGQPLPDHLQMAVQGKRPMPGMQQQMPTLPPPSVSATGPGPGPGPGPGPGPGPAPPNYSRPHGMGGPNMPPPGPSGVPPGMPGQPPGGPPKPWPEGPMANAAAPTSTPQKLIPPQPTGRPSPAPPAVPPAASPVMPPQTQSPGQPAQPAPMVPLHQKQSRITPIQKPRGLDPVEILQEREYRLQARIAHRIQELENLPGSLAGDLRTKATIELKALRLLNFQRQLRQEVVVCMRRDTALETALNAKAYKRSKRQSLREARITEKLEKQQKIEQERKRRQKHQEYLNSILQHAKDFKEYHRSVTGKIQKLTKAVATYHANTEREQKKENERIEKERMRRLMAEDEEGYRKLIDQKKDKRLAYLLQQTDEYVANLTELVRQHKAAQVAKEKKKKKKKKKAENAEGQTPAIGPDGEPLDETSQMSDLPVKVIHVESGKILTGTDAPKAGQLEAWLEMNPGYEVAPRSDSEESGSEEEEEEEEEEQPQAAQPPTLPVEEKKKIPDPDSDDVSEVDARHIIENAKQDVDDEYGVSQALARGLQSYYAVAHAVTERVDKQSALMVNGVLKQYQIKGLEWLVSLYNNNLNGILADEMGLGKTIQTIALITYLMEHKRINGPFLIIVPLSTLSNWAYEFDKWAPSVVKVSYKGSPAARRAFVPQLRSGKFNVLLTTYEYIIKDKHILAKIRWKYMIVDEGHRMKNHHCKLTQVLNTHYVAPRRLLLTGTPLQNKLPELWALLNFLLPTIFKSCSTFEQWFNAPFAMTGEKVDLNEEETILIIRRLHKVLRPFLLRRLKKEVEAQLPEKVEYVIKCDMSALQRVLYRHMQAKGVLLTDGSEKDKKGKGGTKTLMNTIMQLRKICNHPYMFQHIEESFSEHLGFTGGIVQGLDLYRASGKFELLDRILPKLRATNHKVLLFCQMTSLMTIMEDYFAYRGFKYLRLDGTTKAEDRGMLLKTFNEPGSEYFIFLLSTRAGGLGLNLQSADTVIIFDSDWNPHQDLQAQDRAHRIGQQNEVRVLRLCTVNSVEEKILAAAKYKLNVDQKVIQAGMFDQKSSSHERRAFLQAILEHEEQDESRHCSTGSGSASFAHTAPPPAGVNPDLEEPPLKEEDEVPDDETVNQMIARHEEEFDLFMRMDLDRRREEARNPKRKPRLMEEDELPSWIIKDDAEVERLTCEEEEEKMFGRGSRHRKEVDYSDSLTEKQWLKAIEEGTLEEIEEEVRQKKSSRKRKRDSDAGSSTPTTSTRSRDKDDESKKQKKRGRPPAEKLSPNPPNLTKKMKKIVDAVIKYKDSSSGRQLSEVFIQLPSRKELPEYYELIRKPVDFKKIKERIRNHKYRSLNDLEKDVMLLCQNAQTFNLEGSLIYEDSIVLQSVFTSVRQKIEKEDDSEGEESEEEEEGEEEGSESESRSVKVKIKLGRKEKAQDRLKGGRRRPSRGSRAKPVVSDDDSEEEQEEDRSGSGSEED

Row | SMILES | DC50 [1] [nM] | BRM IF Degradation Sinf (%) [1] | DC50 [2] [nM] | Dmax [2] [%]
1 | COCC1CCCCN1CC#Cc1cc(N2C3CCC2CN(c2cc(-c4ccccc4O)nnc2N)C3)ccn1 (stereo not drawn) [Compound 41, 2-[6-amino-5-[8-[2-[3-[2-(methoxymethyl)-1-piperidyl]prop-1-ynyl]-4-pyridyl]-3,8-diazabicyclo[3.2.1]octan-3-yl]pyridazin-3-yl]phenol] | 10 to 100 | E (E indicates −30%-−70%) | 10 to 100 | 30 to 70
2 | Nc1nnc(-c2ccccc2O)cc1N1CC2CCC(C1)N2c1ccnc(C#CCN2CC3(CC(O)C3)C2)c1 [Compound 185, 2-[3-[4-[3-[3-amino-6-(2-hydroxyphenyl)pyridazin-4-yl]-3,8-diazabicyclo[3.2.1]octan-8-yl]-2-pyridyl]prop-2-ynyl]-2-azaspiro[3.3]heptan-6-ol] | > 100 | F (F indicates −71%-−120%) | 10 to 100 | 30 to 70
3 | CC1(CO)CN(CC#Cc2cc(N3C4CCC3CN(c3cc(-c5ccccc5O)nnc3N)C4)ccn2)C1 [Compound 170, 2-[6-amino-5-[8-[2-[3-[3-(hydroxymethyl)-3-methyl-azetidin-1-yl]prop-1-ynyl]-4-pyridyl]-3,8-diazabicyclo[3.2.1]octan-3-yl]pyridazin-3-yl]phenol] | 10 to 100 | E (E indicates −30%-−70%) | > 100 | 30 to 70
4 | Nc1nnc(-c2ccccc2O)cc1N1CC2CCC(C1)N2c1ccnc(C#CCN2CCCC(F)(F)C(F)C2)c1 (stereo not drawn) [Compound 199, 2-[6-amino-5-[8-[2-[3-(3,4,4-trifluoroazepan-1-yl)prop-1-ynyl]-4-pyridyl]-3,8-diazabicyclo[3.2.1]octan-3-yl]pyridazin-3-yl]phenol] | < 10 | F (F indicates −71%-−120%) | 10 to 100 | 30 to 70
5 | N#Cc1ccc(C2CN(CC#Cc3cc(N4C5CCC4CN(c4cc(-c6ccccc6O)nnc4N)C5)ccn3)C2)cc1 [Compound 237, 4-[1-[3-[4-[3-[3-amino-6-(2-hydroxyphenyl)pyridazin-4-yl]-3,8-diazabicyclo[3.2.1]octan-8-yl]-2-pyridyl]prop-2-ynyl]azetidin-3-yl]benzonitrile] | 10 to 100 | E (E indicates −30%-−70%) | 10 to 100 | 30 to 70
6 | N#CC1CCCN(CC#Cc2cc(N3C4CCC3CN(c3cc(-c5ccccc5O)nnc3N)C4)ccn2)C1 (stereo not drawn) [Compound 120, 1-[3-[4-[3-[3-amino-6-(2-hydroxyphenyl)pyridazin-4-yl]-3,8-diazabicyclo[3.2.1]octan-8-yl]-2-pyridyl]prop-2-ynyl]piperidine-3-carbonitrile] | 10 to 100 | E (E indicates −30%-−70%) | 10 to 100 | 30 to 70
7 | Nc1nnc(-c2ccccc2O)cc1N1CC2CCC(C1)N2c1ccnc(C#CCN2CCC3CCC2C3)c1 (stereo not drawn) [Compound 221, 2-[6-amino-5-[8-[2-[3-(2-azabicyclo[3.2.1]octan-2-yl)prop-1-ynyl]-4-pyridyl]-3,8-diazabicyclo[3.2.1]octan-3-yl]pyridazin-3-yl]phenol] | < 10 | E (E indicates −30%-−70%) | < 10 | 30 to 70
8 | Nc1nnc(-c2ccccc2O)cc1N1CC2CCC(C1)N2c1ccnc(C#CCN2C[C@H]3CC[C@@H]2C3)c1 [Compound 115, 2-[6-amino-5-[8-[2-[3-[(1R,4S)-2-azabicyclo[2.2.1]heptan-2-yl]prop-1-ynyl]-4-pyridyl]-3,8-diazabicyclo[3.2.1]octan-3-yl]pyridazin-3-yl]phenol] | < 10 | E (E indicates −30%-−70%) | < 10 | 30 to 70
9 | Nc1nnc(-c2ccccc2O)cc1N1CC2CCC(C1)N2c1ccnc(C#CCN2CCCCCC2)c1 [Compound 58, 2-(6-amino-5-(8-(2-(3-(azepan-1-yl)prop-1-yn-1-yl)pyridin-4-yl)-3,8-diazabicyclo[3.2.1]octan-3-yl)pyridazin-3-yl)phenol] | < 10 | F (F indicates −71%-−120%) | < 10 | 30 to 70
